From patent US10131639B2, “Formulations of 2-(tert-butylamino)-4-((1R,3R,4R)-3-hydroxy-4methylcyclohexylamino)-pyrimidine-5-carboxamide” (Signal Pharmaceuticals, LLC, priority 2014, dated 2018)
Read-outs that look alike come from different tables or passages of the source.

Key:
[1] = Earlier human experience with Compound 1 (doses up to 480 mg QD×14 days); type: in vivo; conditions: healthy subjects
[2] = Solubility in water and SGF (24 hours, ambient temperature, HPLC/UV); type: physicochemical; conditions: for solubility at 24 h: ambient temperature
Method: Solubility in Water and SGF: A portion of the sample was weighed into a 2 mL clear HPLC vial. […] The sample was removed from the shaker and pH measurement was performed using a calibrated pH meter. Then a portion of the sample was filtered using […] Nylon-membraned centrifuge tube filter at 14000 RPM for 5 min. The filtrate was analyzed using HPLC/UV with appropriate dilution. The filtered solid residues were analyzed using XRPD.
For solubility in SGF, the samples were prepared and assayed in the same procedures as mentioned above.

in vivo = conditions: rat
Text: Based upon available human PK and preclinical pharmacology data, the doses were anticipated to provide a range of PD effects including both minimum and maximum JNK inhibition.

[3] = system: UVB-induced phospho c-jun expression in skin; test: Phospho c-Jun immunohistochemistry of UVB-irradiated skin biopsies: histopathology scores (scale 0-4); type: in vivo, human
Text: On baseline (Day −1) and on the sixth day of each dosing period (Days 6, 12, and 18), the skin test sites were delineated on the subject's upper buttock between the beltline and the natal cleft on the right side. The right side of the buttock was divided into four different test sites, one site for 2×MED irradiation at baseline and each of the three dosing periods. Each test site was a minimum of 3 cm×3 cm. Subjects received 2×MED UV irradiation at baseline (Day −1) at approximately the same time that irradiation was scheduled on Days 6, 12, and 18, which was 2 hours postdose. Eight hours after UV irradiation (±10 minutes), a skin punch biopsy was taken from the UV exposure site. The biopsies were processed into tissue slides by a third party and analyzed by immunohistochemistry (IHC). This third party was blinded to the treatment periods (baseline and doses).
Phospho-c-Jun expression in biopsies was analyzed by IHC. Phospho-c-Jun IHC data were subjectively scored on a scale of 0 to 4 based on the intensity and number of epidermal keratinocyte nuclei stained within the tissue section by trained individuals blinded to treatment. The IHC was also analyzed by automated measurement of integrated optical density.
Phospho c-Jun immunohistochemistry (IHC) images were scored by 2 independent pathologists from Quintiles using a scoring scale of 0-4. The percentage of epithelial c-Jun positive nuclei was scored as follows: […]

[4] = Phase 1 study Part 2: single-dose plasma pharmacokinetics, relative bioavailability (tablet vs AIC) and food effect in healthy subjects; type: in vivo, human; conditions: for AUC(0-t) / Tmax / AUC(0-inf) / Cmax / Vd/F / half-life: human, plasma; for Vd/F: read-out: Vz/F (apparent total volume of distribution)
Method: Part 2 was an open label, randomized, crossover study with three periods. The study consisted of a screening phase (Days −21 to −2), baseline (Day −1), three treatment/assessment periods, and a follow up phone call.
Twelve eligible subjects reported to the study center on Day −1 of Period 1 for confinement and baseline assessments.
All subjects fasted overnight for at least 10 hours prior to dosing. For Treatment F, subjects received a standard high-fat breakfast 30 minutes before dosing. Dosing occurred 30 minutes (±5 minutes) after serving the meal.
Treatments D and E were administered in the morning following an overnight fast of at least 10 hours. Subjects who received Treatments D and E (fasted) continued to fast for at least 4 hours after dosing. For Treatment F, subjects received a standard high fat (approximately 50% of the total caloric content of the meal), high calorie (approximately 800 to 1000 calories) breakfast 30 minutes before dosing. The meal derived approximately 150, 250, and 500 to 600 calories from protein, carbohydrates, and fat, respectively. Subjects consumed the entire meal within 30 minutes of serving. Dosing occurred 30 minutes (±5 minutes) after serving the meal.
Actual sampling times were used in the calculation of PK parameters.
AUCt: AUC from time zero to the last quantifiable concentration.
AUC∞: AUC from time zero extrapolated to infinity.
Cmax: Maximum observed plasma concentration.
CL/F: Apparent total plasma clearance when dosed orally.
Vz/F: Apparent total volume of distribution when dosed orally.
t1/2: Terminal phase elimination half-life.
Geometric least squares (LS) means, ratio (fed/fasted) and 90% confidence intervals (CIs) of the ratio of geometric LS means were from an analysis of variance (ANOVA) model with treatment, period, and sequence as fixed effects, and subject nested within sequence as a random effect on the natural log-transformed pharmacokinetics.
The median, median difference (fed-fasted), and 90% confidence interval of the median difference were from the Hodges-Lehmann estimate.

[5] = measured after 24 hours shaking
[6] = 200 mg tablet vs 2×100 mg capsules, single oral dose, fasted
[7] = Comparison E/D: 200 mg tablet fasted vs 2×100 mg AIC fasted
[8] = Comparison F/E: 200 mg tablet fed vs fasted
[9] = single oral dose of 200 mg tablet

pH of the solubility sample in SGF [2, 5]: (pH 2.20) | pH of the solubility sample in water [2, 5]: (pH 8.96) | solubility at 24 h ([2]; pH 2.2, thermodynamic from solid, simulated gastric fluid without pepsin, read-out: Solubility in SGF (equiv. to free base)): 7170 µg/mL | solubility at 24 h ([2]; pH 8.96, thermodynamic from solid, water, read-out: Solubility in water (equiv. to free base)): 18 µg/mL | AUC (in vivo): 23400 ng·h/mL | AUCt and AUC∞ of tablet compared to the capsules [4, 6]: equivalent | Cmax of tablet lower relative to the capsule formulation [4, 6]: ~17% | AUCt, Ratio (%) of Geometric Means [4, 7]: 92.6% | AUC∞, Ratio (%) of Geometric Means [4, 7]: 92.9% | Cmax, Ratio (%) of Geometric Means [4, 7]: 82.9% | AUCt, Ratio (%) of Geometric Means [4, 8]: 100.6% | AUC∞, Ratio (%) of Geometric Means [4, 8]: 100.8% | Cmax, Ratio (%) of Geometric Means [4, 8]: 106.4% | AUCτ (time 0 to the last quantifiable concentration) ([4]; Treatment F: 1×200 mg formulated tablet, single oral dose, fed (high-fat breakfast), geometric mean (geometric CV%), N=12): 12000 (27.4) ng · h/mL | AUC(0-t) ([4]; 200 mg, Treatment D: 2×100 mg as AIC, single oral dose, fasted, healthy subjects, geometric mean (geometric CV%), N=12, read-out: AUCτ (time 0 to the last quantifiable concentration)): 12900 ng·h/mL | Tmax ([4]; oral, 200 mg, Comparison E/D: 200 mg tablet fasted vs 2×100 mg AIC fasted, read-out: tmax, Median Difference): 0.01 h | Tmax ([4]; oral, 200 mg, Comparison F/E: 200 mg tablet fed vs fasted, read-out: tmax, Median Difference): 0.87 h | Tmax ([4]; oral, postdose, for all doses (Part 1 and Part 2), read-out: median Tmax): 1.95 to 3 h | AUC(0-t) ([4]; po, 200 mg, Treatment D: 2×100 mg as AIC, single oral dose, fasted, N=12, read-out: AUCt, Geometric Mean (ANOVA LS mean)): 12900 ng·h/mL | AUC(0-inf) ([4]; po, 200 mg, Treatment D: 2×100 mg as AIC, single oral dose, fasted, N=12, read-out: AUC∞, Geometric Mean (ANOVA LS mean)): 13100 ng·h/mL | Cmax ([4]; po, 200 mg, Treatment D: 2×100 mg as AIC, single oral dose, fasted, N=12, read-out: Cmax, Geometric Mean (ANOVA LS mean)): 2080 ng/mL | Tmax ([4]; po, 200 mg, Treatment D: 2×100 mg as AIC, single oral dose, fasted, N=12, read-out: tmax, Median (Hodges-Lehmann estimate)): 2 h | AUC(0-inf) ([4]; po, 200 mg, Treatment D: 2×100 mg as AIC, single oral dose, fasted, geometric mean (geometric CV%), N=12, read-out: AUC∞): 13100 ng·h/mL | Cmax ([4]; po, 200 mg, Treatment D: 2×100 mg as AIC, single oral dose, fasted, geometric mean (geometric CV%), N=12, read-out: Cmax): 2080 ng/mL | Vd/F ([4]; po, 200 mg, Treatment D: 2×100 mg as AIC, single oral dose, fasted, geometric mean (geometric CV%), N=12): 447 L | half-life ([4]; po, 200 mg, Treatment D: 2×100 mg as AIC, single oral dose, fasted, geometric mean (geometric CV%), N=12, read-out: t1/2 (terminal elimination half-life) (converted)): 20.3 h | Tmax ([4]; po, 200 mg, Treatment D: 2×100 mg as AIC, single oral dose, fasted, median (minimum, maximum), N=12, read-out: Tmax): 2 h | AUC(0-t) ([4]; po, 200 mg, Treatment E: 1×200 mg formulated tablet, single oral dose, fasted, N=12, read-out: AUCt, Geometric Mean (ANOVA LS mean)): 11900 ng·h/mL | AUC(0-inf) ([4]; po, 200 mg, Treatment E: 1×200 mg formulated tablet, single oral dose, fasted, N=12, read-out: AUC∞, Geometric Mean (ANOVA LS mean)): 12200 ng·h/mL | Cmax ([4]; po, 200 mg, Treatment E: 1×200 mg formulated tablet, single oral dose, fasted, N=12, read-out: Cmax, Geometric Mean (ANOVA LS mean)): 1730 ng/mL | Tmax ([4]; po, 200 mg, Treatment E: 1×200 mg formulated tablet, single oral dose, fasted, N=12, read-out: tmax, Median (Hodges-Lehmann estimate)): 2 h | AUC(0-t) ([4]; po, 200 mg, Treatment E: 1×200 mg formulated tablet, single oral dose, fasted, geometric mean (geometric CV%), N=12, read-out: AUCτ (time 0 to the last quantifiable concentration)): 11900 ng·h/mL | AUC(0-inf) ([4]; po, 200 mg, Treatment E: 1×200 mg formulated tablet, single oral dose, fasted, geometric mean (geometric CV%), N=12, read-out: AUC∞): 12200 ng·h/mL | Cmax ([4]; po, 200 mg, Treatment E: 1×200 mg formulated tablet, single oral dose, fasted, geometric mean (geometric CV%), N=12, read-out: Cmax): 1730 ng/mL | Vd/F ([4]; po, 200 mg, Treatment E: 1×200 mg formulated tablet, single oral dose, fasted, geometric mean (geometric CV%), N=12): 477 L | half-life ([4]; po, 200 mg, Treatment E: 1×200 mg formulated tablet, single oral dose, fasted, geometric mean (geometric CV%), N=12, read-out: t1/2 (terminal elimination half-life) (converted)): 20.1 h | Tmax ([4]; po, 200 mg, Treatment E: 1×200 mg formulated tablet, single oral dose, fasted, median (minimum, maximum), N=12, read-out: Tmax): 2 h | AUC(0-t) ([4]; po, 200 mg, Treatment F: 1×200 mg formulated tablet, single oral dose, fed, N=12, read-out: AUCt, Geometric Mean (ANOVA LS mean)): 12000 ng·h/mL | AUC(0-inf) ([4]; po, 200 mg, Treatment F: 1×200 mg formulated tablet, single oral dose, fed, N=12, read-out: AUC∞, Geometric Mean (ANOVA LS mean)): 12300 ng·h/mL | Cmax ([4]; po, 200 mg, Treatment F: 1×200 mg formulated tablet, single oral dose, fed, N=12, read-out: Cmax, Geometric Mean (ANOVA LS mean)): 1840 ng/mL | Tmax ([4]; po, 200 mg, Treatment F: 1×200 mg formulated tablet, single oral dose, fed, N=12, read-out: tmax, Median (Hodges-Lehmann estimate)): 3 h | AUC(0-inf) ([4]; po, 200 mg, Treatment F: 1×200 mg formulated tablet, single oral dose, fed, geometric mean (geometric CV%), N=12, read-out: AUC∞): 12300 ng·h/mL | Cmax ([4]; po, 200 mg, Treatment F: 1×200 mg formulated tablet, single oral dose, fed, geometric mean (geometric CV%), N=12, read-out: Cmax): 1840 ng/mL | Vd/F ([4]; po, 200 mg, Treatment F: 1×200 mg formulated tablet, single oral dose, fed, geometric mean (geometric CV%), N=12): 510 L | half-life ([4]; po, 200 mg, Treatment F: 1×200 mg formulated tablet, single oral dose, fed, geometric mean (geometric CV%), N=12, read-out: t1/2 (terminal elimination half-life) (converted)): 21.7 h | Tmax ([4]; po, 200 mg, Treatment F: 1×200 mg formulated tablet, single oral dose, fed, median (minimum, maximum), N=12, read-out: Tmax): 3 h | half-life ([4]; po, 200 mg, following a single oral dose of 200 mg, read-out: terminal elimination t1/2 (converted)): ~20 h | correlation of plasma concentrations with whole blood concentration ([4]; single 200 mg dose, Treatment D (FIG. 106)): highly correlated | effect of food on the PK of the tablet formulation ([4]; single oral 200 mg tablet, healthy subjects): no effect | AUCt and AUC∞ under fed compared to fasted conditions [4, 9]: equivalent | Cmax higher in the fed state compared to the fasted state [4, 9]: ~6%
Compound: C[C@@H]1CC[C@@H](Nc2nc(NC(C)(C)C)ncc2C(N)=O)C[C@H]1O [Compound 1, 2-(tert-butylamino)-4-((1R,3R,4R)-3-hydroxy-4-methylcyclohexylamino)-pyrimidine-5-carboxamide]
tolerability [1]: well tolerated | percentage of individuals showing either no change or a decrease in histopathology score ([3]; 60 mg dose group (8/15)): 53% | percentage of individuals showing either no change or a decrease in histopathology score ([3]; 160 mg dose group (10/14)): 71% | percentage of individuals showing either no change or a decrease in histopathology score ([3]; 400 mg dose group (11/14)): 79% | change from baseline in median histopathology scores ([3]; 60, 160, 400 mg QD×6 days, scale 0-4, 2 independent pathologists): not significantly affected
